# According to patent US10851073B2, “Protein tyrosine phosphatase inhibitors and methods of use thereof” (Calico Life Sciences LLC, priority 2019, dated 2020):
# pIC50: −log10 of the molar value.
# Tested on: B16F10 mouse melanoma cells
# Experiment: B16F10 IFNγ-induced cellular growth inhibition assay
# Type: cell-based
# Conditions: B16-F10, with 0.5 ng/mL IFNγ, read-out: B16F10 GI IC50
# Procedure: Example 229: B16F10 IFNγ-Induced Cellular Growth Inhibition Assay B16F10 mouse melanoma cells (ATCC Cat^# CRL-6475, Manassas, Va.) were seeded at a density of 500 cells per well in a 384-well clear bottom plate (Corning Cat^#3765, Corning, N.Y.) in 25 μL total volume of DMEM+10% FBS (Sigma Cat^# D6429 and Sigma Cat^# F4135, St. Louis, Mo.). Cells were allowed to adhere overnight at 37° C.+5% CO2. On the following day, 12.5 μL of mouse IFNγ (RD systems Cat^#485-MI/CF, Minneapolis, Minn.) was added to half of the plate (columns 13-24) at a concentration of 2 ng/mL for a final assay concentration of 0.5 ng/mL of IFNγ. Media only (12.5 μL of DMEM+10% FBS) was added to the remainder of the plate (columns 1-12). Next, compounds resuspended in DMSO (Sigma Cat^# D2650) at 100 mM were diluted in semi-log dilutions in DMSO ranging from 100 mM to 0.001 mM and DMSO only controls were included. The compound/DMSO dilutions were further diluted 1:250 in DMEM+10% FBS, and 12.5 μL of these dilutions were added in triplicates to cells of both treatment arms (with and without IFNγ). Final compound concentrations ranged from 100 μM to 0.001 μM with a final DMSO concentration of 0.1%. Compounds were only dosed in the inner 240 wells, avoiding the outer 2-well perimeter of the plate to minim/ze edge effects. Finally, the plate was loaded into an IncuCyte® S3 Live Cell Analysis System (Essen Bioscience-Sartorius, Ann Arbor, Mich.) maintained in a 37° C.+5% CO2 incubator, allowed to equilibrate for 2 hours, and imaged every 6 hours for 5 days. Confluence over time for compound dilutions in the presence and absence of IFNγ was measured. Growth inhibition values were obtained when the “DMSO/no IFNγ” control reached confluence >95%. At these time points, for each compound the percent growth inhibition at every compound dose level was calculated relative to the “DMSO/with IFNγ” control and used to determine the IC50.
row,pIC50,Structure (SMILES)
1,4.00 to 5.00,"O=C1CN(c2c(O)cc3c(c2F)CCCC3)S(=O)(=O)N1 [Compound 108, 5-(1-fluoro-3-hydroxy-5,6,7,8-tetrahydronaphthalen-2-yl)-1λ^6,2,5-thiadiazolidine-1,1,3-trione]"
2,5.00 to 6.00,"COCCCN1CCc2cc(O)c(N3CC(=O)NS3(=O)=O)c(F)c2C1 [Compound 217, 5-[8-fluoro-6-hydroxy-2-(3-methoxypropyl)-1,2,3,4-tetrahydroisoquinolin-7-yl]-1λ^6,2,5-thiadiazolidine-1,1,3-trione]"
3,4.00 to 5.00,"O=C1CN(c2c(O)cc3c(c2F)CCCO3)S(=O)(=O)N1 [Compound 111, 5-(5-fluoro-7-hydroxy-3,4-dihydro-2H-1-benzopyran-6-yl)-1λ^6,2,5-thiadiazolidine-1,1,3-trione]"
4,4.00 to 5.00,"Cc1noc(C)c1CN1CCc2cc(O)c(N3CC(=O)NS3(=O)=O)c(F)c2C1 [Compound 208, 5-{2-[(3,5-dimethyl-1,2-oxazol-4-yl)methyl]-8-fluoro-6-hydroxy-1,2,3,4-tetrahydroisoquinolin-7-yl}-1λ^6,2,5-thiadiazolidine-1,1,3-trione]"

# The remaining lines, values behind:
row,Structure (SMILES),pIC50
1,"Cc1nn(CC(F)F)c(C)c1CCN1CCc2cc(O)c(N3CC(=O)NS3(=O)=O)c(F)c2C1 [Compound 253, 5-(2-{2-[1-(2,2-difluoroethyl)-3,5-dimethyl-1H-pyrazol-4-yl]ethyl}-8-fluoro-6-hydroxy-1,2,3,4-tetrahydroisoquinolin-7-yl)-1λ^6,2,5-thiadiazolidine-1,1,3-trione]",5.00 to 6.00
2,"O=C1CN(c2c(O)cc3c(c2F)CN(CCCCC(F)(F)F)CC3)S(=O)(=O)N1 [Compound 153, 5-[8-fluoro-6-hydroxy-2-(5,5,5-trifluoropentyl)-1,2,3,4-tetrahydroisoquinolin-7-yl]-1λ^6,2,5-thiadiazolidine-1,1,3-trione]",< 4.00
3,"O=C1CN(c2c(O)cc3c(c2F)CN(CCC2(C(F)(F)F)CC2)CC3)S(=O)(=O)N1 [Compound 243, 5-(8-fluoro-6-hydroxy-2-{2-[1-(trifluoromethyl)cyclopropyl]ethyl}-1,2,3,4-tetrahydroisoquinolin-7-yl)-1λ^6,2,5-thiadiazolidine-1,1,3-trione]",5.00 to 6.00
4,"Cc1n[nH]c(C)c1CCN1CCc2cc(O)c(N3CC(=O)NS3(=O)=O)c(F)c2C1 [Compound 194, 5-{2-[2-(3,5-dimethyl-1H-pyrazol-4-yl)ethyl]-8-fluoro-6-hydroxy-1,2,3,4-tetrahydroisoquinolin-7-yl}-1λ^6,2,5-thiadiazolidine-1,1,3-trione]",5.00 to 6.00
5,"O=C1CN(c2c(O)cc3c(c2F)CN(C(=O)NCC2CC(F)(F)C2)CC3)S(=O)(=O)N1 [Compound 262, N-[(3,3-difluorocyclobutyl)methyl]-8-fluoro-6-hydroxy-7-(1,1,4-trioxo-1λ^6,2,5-thiadiazolidin-2-yl)-3,4-dihydroisoquinoline-2(1H)-carboxamide]",4.00 to 5.00
6,"Cc1c(CCN2CCc3cc(O)c(N4CC(=O)NS4(=O)=O)c(F)c3C2)cnn1C [Compound 257, 5-{2-[2-(1,5-dimethyl-1H-pyrazol-4-yl)ethyl]-8-fluoro-6-hydroxy-1,2,3,4-tetrahydroisoquinolin-7-yl}-1λ^6,2,5-thiadiazolidine-1,1,3-trione]",5.00 to 6.00
7,"O=C1CN(c2c(O)cc3c(c2F)CN(CCCC2CCCCC2)CC3)S(=O)(=O)N1 [Compound 286, 5-[2-(3-cyclohexylpropyl)-8-fluoro-6-hydroxy-1,2,3,4-tetrahydroisoquinolin-7-yl]-1λ^6,2,5-thiadiazolidine-1,1,3-trione]",5.00 to 6.00
8,"CC(C)CNC(=O)N1CCc2cc(O)c(N3CC(=O)NS3(=O)=O)c(F)c2C1 [Compound 206, 8-fluoro-6-hydroxy-N-(2-methylpropyl)-7-(1,1,4-trioxo-1λ^6,2,5-thiadiazolidin-2-yl)-3,4-dihydroisoquinoline-2(1H)-carboxamide]",5.00 to 6.00

# Same assay, conditions: B16-F10, with 0.5 ng/mL IFNγ, read-out: B16F10 Growth Inhibition IC50
row,pIC50,Structure (SMILES)
1,5.49,CC(C)CCNc1ccc2cc(O)c(N3CC(=O)NS3(=O)=O)c(F)c2c1 [Compound V]
